Laboratory results taken from US9023855B2, “Compounds” (Chiesi Farmaceutici S.p.A., priority 2011, dated 2015).

Biological target: T1, human neutrophil elastase (HNE) (Homo sapiens, UniProt P08246)
T1 construct: purchased Sigma E8140
T1 sequence (P08246 30-267): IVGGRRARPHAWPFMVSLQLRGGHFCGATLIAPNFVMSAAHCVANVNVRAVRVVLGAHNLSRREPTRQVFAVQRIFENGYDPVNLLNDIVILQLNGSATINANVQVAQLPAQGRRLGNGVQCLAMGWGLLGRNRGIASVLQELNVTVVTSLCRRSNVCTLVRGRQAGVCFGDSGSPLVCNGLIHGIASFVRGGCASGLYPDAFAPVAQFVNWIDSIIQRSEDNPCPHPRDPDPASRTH
Experiment: HNE enzyme assay (fluorogenic peptide substrate MeOSuc-Ala-Ala-Pro-Val-AMC)
Format: biochemical
Details: human leukocyte elastase, substrate 100 μM, 25° C., 30 minutes, at least two separate experiments; read-out: HNE inhibition (IC50 values)
Description: Compounds of this invention were tested for potency in a human neutrophil elastase (HNE) enzyme activity assay.
Assays were performed in 96-well plates in a total assay volume of 100 μl. The final concentration of elastase enzyme (human leukocyte elastase, Sigma E8140) was 0.0036 units/well […]. The peptide substrate (MeOSuc-Ala-Ala-Pro-Val-AMC, Calbiochem #324740) was used at a final concentration of 100 μM. The final concentration of DMSO was 1% in the assay buffer (0.05M Tris.HCl, 0.1M NaCl, 0.1M CaCl2, 0.0005% brij-35, pH 7.5). The enzymatic reaction was started by addition of the enzyme and incubated at 25° C. for 30 minutes. After incubation, the reaction was stopped by addition of soybean trypsin inhibitor (Sigma T9003) at a final concentration of 50 μg/well. Fluorescence was measured using a Molecular Devices fluorescence plate reader using 380 nm excitation and 460 nm emission wavelengths.
A dose response to each compound was performed, and the effect of the compound in each experiment was expressed as a percentage inhibition of the control enzyme fluorescence. Dose response curves were plotted and compound potency (IC50) was determined. Compounds were tested in at least two separate experiments.

Row | SMILES | IC50 [nM]
1 | CC1=C(C(=O)O)C(c2ccc(C#N)cc2)n2c(n[nH]c2=O)N1c1cccc(C(F)(F)F)c1 (stereo not drawn) [Example 9, 5-(4-Cyano-phenyl)-7-methyl-3-oxo-8-(3-trifluoromethyl-phenyl)-2,3,5,8-tetrahydro-[1,2,4]triazolo[4,3-a]pyrimidine-6-carboxylic acid] | < 20
2 | CC1=C(C#N)C(c2ccc(C#N)cc2)n2c(n[nH]c2=O)N1c1cccc(C(F)(F)F)c1 (stereo not drawn) [Example 14, 5-(4-Cyano-phenyl)-7-methyl-3-oxo-8-(3-trifluoromethyl-phenyl)-2,3,5,8-tetrahydro-[1,2,4]triazolo[4,3-a]pyrimidine-6-carbonitrile] | < 20
3 | COC(=O)C1=C(C)N(c2cccc(C(F)(F)F)c2)c2nn(Cc3ccc(C[N+](C)(C)C)cc3)c(=O)n2C1c1ccc(C#N)cc1 (stereo not drawn) [Example 22, {4-[5-(4-Cyano-phenyl)-6-methoxycarbonyl-7-methyl-3-oxo-8-(3-trifluoromethyl-phenyl)-5,8-dihydro-[1,2,4]triazolo[4,3-a]pyrimidin-2-ylmethyl]-benzyl}-trimethyl-ammonium bromide] | < 20
4 | COC(=O)C1=C(C)N(c2cccc(C(F)(F)F)c2)c2nn(-c3ccc(S(C)(=O)=O)cc3)c(=O)n2C1c1ccc(C#N)cc1 (stereo not drawn) [Example 15, 5-(4-Cyano-phenyl)-2-(4-methanesulfonyl-phenyl)-7-methyl-3-oxo-8-(3-trifluoromethyl-phenyl)-2,3,5,8-tetrahydro-[1,2,4]triazolo[4,3-a]pyrimidine-6-carboxylic acid methyl ester] | < 20
5 | COC(=O)C1=C(C)N(c2cccc(C(F)(F)F)c2)c2nn(CC(=O)N(C)CCCC[N+](C)(C)C)c(=O)n2C1c1ccc(C#N)cc1 (stereo not drawn) [Example 31, [4-({2-[5-(4-Cyano-phenyl)-6-methoxycarbonyl-7-methyl-3-oxo-8-(3-trifluoromethyl-phenyl)-5,8-dihydro-[1,2,4]triazolo[4,3-a]pyrimidin-2-yl]-acetyl}-methyl-amino)-butyl]-trimethylammonium bromide] | < 20
6 | COC(=O)C1=C(C)N(c2cccc(C(F)(F)F)c2)c2nn(CC(N)=O)c(=O)n2C1c1ccc(C#N)cc1 (stereo not drawn) [Example 2, 2-Carbamoylmethyl-5-(4-cyanophenyl)-7-methyl-3-oxo-8-(3-trifluoromethylphenyl)-2,3,5,8-tetrahydro-[1,2,4]triazolo[4,3-a]pyrimidine-6-carboxylic acid methyl ester] | < 20
7 | COC(=O)C1=C(C)N(c2cccc(C(F)(F)F)c2)c2nn(CC(=O)N(C)CCCCC[N+](C)(C)C)c(=O)n2[C@@H]1c1ccc(C#N)cc1 [Example 34, (R)-[5-({2-[5-(4-Cyano-phenyl)-6-methoxycarbonyl-7-methyl-3-oxo-8-(3-trifluoromethyl-phenyl)-5,8-dihydro-[1,2,4]triazolo[4,3-a]pyrimidin-2-yl]-acetyl}-methyl-amino)pentyl]-trimethyl-ammonium chloride] | < 20
8 | COC(=O)C1=C(C)N(c2cccc(C(F)(F)F)c2)c2nn(Cc3ccc(CN(C)C)cc3)c(=O)n2C1c1ccc(C#N)cc1 (stereo not drawn) [Example 21, 5-(4-Cyano-phenyl)-2-(4-dimethylaminomethyl-benzyl)-7-methyl-3-oxo-8-(3-trifluoromethyl-phenyl)-2,3,5,8-tetrahydro-[1,2,4]triazolo[4,3-a]pyrimidine-6-carboxylic acid methyl ester] | < 20
9 | COC(=O)C1=C(C)N(c2cccc(C(F)(F)F)c2)c2n[nH]c(=O)n2C1c1ccc(C#N)cc1 (stereo not drawn) [Example 1, 5-(4-Cyanophenyl)-7-methyl-3-oxo-8-(3-trifluoromethylphenyl)-2,3,5,8-tetrahydro-[1,2,4]triazolo[4,3-a]pyrimidine-6-carboxylic acid methyl ester] | < 20
10 | C=CCn1nc2n(c1=O)C(c1ccc(C#N)cc1)C(C(=O)OC)=C(C)N2c1cccc(C(F)(F)F)c1 (stereo not drawn) [Example 5, 2-Allyl-5-(4-cyanophenyl)-7-methyl-3-oxo-8-(3-trifluoromethyl-phenyl)-2,3,5,8-tetrahydro-[1,2,4]triazolo[4,3-a]pyrimidine-6-carboxylic acid methyl ester] | < 20
11 | CC1=C(C(=O)OCCCN(C)C)C(c2ccc(C#N)cc2)n2c(n[nH]c2=O)N1c1cccc(C(F)(F)F)c1 (stereo not drawn) [Example 11, 5-(4-Cyano-phenyl)-7-methyl-3-oxo-8-(3-trifluoromethyl-phenyl)-2,3,5,8-tetrahydro-[1,2,4]triazolo[4,3-a]pyrimidine-6-carboxylic acid 3-dimethylamino-propyl ester] | < 20
12 | COC(=O)C1=C(C)N(c2cccc(C(F)(F)F)c2)c2nn(CCCN3CCCC3=O)c(=O)n2C1c1ccc(C#N)cc1 (stereo not drawn) [Example 24, 5-(4-Cyano-phenyl)-7-methyl-3-oxo-2-[3-(2-oxo-pyrrolidin-1-yl)-propyl]-8-(3-trifluoromethyl-phenyl)-2,3,5,8-tetrahydro-[1,2,4]triazolo[4,3-a]pyrimidine-6-carboxylic acid methyl ester] | < 20

Next, values leading:

Row | IC50 [nM] | SMILES
13 | < 20 | COC(=O)C1=C(C)N(c2cccc(C(F)(F)F)c2)c2nn(CC(=O)N(C)CCN(C)C)c(=O)n2C1c1ccc(C#N)cc1 (stereo not drawn) [Example 25, 5-(4-Cyano-phenyl)-2-{[(2-dimethylamino-ethyl)-methyl-carbamoyl]-methyl}-7-methyl-3-oxo-8-(3-trifluoromethyl-phenyl)-2,3,5,8-tetrahydro-[1,2,4]triazolo[4,3-a]pyrimidine-6-carboxylic acid methyl ester]
14 | < 20 | COC(=O)C1=C(C)N(c2cccc(C(F)(F)F)c2)c2nn(CCCN(C)S(C)(=O)=O)c(=O)n2C1c1ccc(C#N)cc1 (stereo not drawn) [Example 36, 5-(4-Cyano-phenyl)-2-[3-(methanesulfonyl-methyl-amino)-propyl]-7-methyl-3-oxo-8-(3-trifluoromethyl-phenyl)-2,3,5,8-tetrahydro-[1,2,4]triazolo[4,3-a]pyrimidine-6-carboxylic acidmethyl ester]
15 | < 20 | COC(=O)C1=C(C)N(c2cccc(C(F)(F)F)c2)c2nn(CC(=O)N(C)CCC[N+](C)(C)C)c(=O)n2C1c1ccc(C#N)cc1 (stereo not drawn) [Example 28, [3-({2-[5-(4-Cyano-phenyl)-6-methoxycarbonyl-7-methyl-3-oxo-8-(3-trifluoromethyl-phenyl)-5,8-dihydro-[1,2,4]triazolo[4,3-a]pyrimidin-2-yl]-acetyl}-methyl-amino)propyl]-trimethyl-ammonium; bromide]
16 | < 20 | COC(=O)C1=C(C)N(c2cccc(C(F)(F)F)c2)c2nn(C)c(=O)n2C1c1ccc(C#N)cc1 (stereo not drawn) [Example 6, 5-(4-Cyanophenyl)-2,7-dimethyl-3-oxo-8-(3-trifluoromethylphenyl)-2,3,5,8-tetrahydro-[1,2,4]triazolo[4,3-a]pyrimidine-6-carboxylic acid methyl ester]
17 | < 20 | COC(=O)C1=C(C)N(c2cccc(C(F)(F)F)c2)c2nn(CCCN(C)C)c(=O)n2C1c1ccc(C#N)cc1 (stereo not drawn) [Example 3]
18 | < 20 | COC(=O)C1=C(C)N(c2cccc(C(F)(F)F)c2)c2nn(CCCS(=O)(=O)CCC[N+](C)(C)C)c(=O)n2C1c1ccc(C#N)cc1 (stereo not drawn) [Example 37, (3-{3-[5-(4-Cyano-phenyl)-6-methoxycarbonyl-7-methyl-3-oxo-8-(3-trifluoromethyl-phenyl)-5,8-dihydro-[1,2,4]triazolo[4,3-a]pyrimidin-2-yl]-propane-1-sulfonyl}-propyl)-trimethylammonium toluene-4-sulfonate]
19 | < 20 | COC(=O)C1=C(C)N(c2cccc(C(F)(F)F)c2)c2nn(CCCS(=O)(=O)CCC[N+](C)(C)C)c(=O)n2[C@@H]1c1ccc(C#N)cc1 [Example 38, (R)-(3-{3-[5-(4-Cyano-phenyl)-6-methoxycarbonyl-7-methyl-3-oxo-8-(3-trifluoromethyl-phenyl)-5,8-dihydro-[1,2,4]triazolo[4,3-a]pyrimidin-2-yl]-propane-1-sulfonyl}-propyl)-trimethylammonium chloride]
20 | < 20 | COC(=O)C1=C(C)N(c2cccc(C(F)(F)F)c2)c2nn(CC(=O)N(C)CCCN(C)C)c(=O)n2C1c1ccc(C#N)cc1 (stereo not drawn) [Example 26, 5-(4-Cyano-phenyl)-2-{[(3-dimethylamino-propyl)-methyl-carbamoyl]-methyl}-7-methyl-3-oxo-8-(3-trifluoromethyl-phenyl)-2,3,5,8-tetrahydro-[1,2,4]triazolo[4,3-a]pyrimidine-6-carboxylic acid methyl ester]
21 | < 20 | COC(=O)C1=C(C)N(c2cccc(C(F)(F)F)c2)c2nn(CC(=O)N(C)CC[N+](C)(C)C)c(=O)n2C1c1ccc(C#N)cc1 (stereo not drawn) [Example 27, [2-({2-[5-(4-Cyano-phenyl)-6-methoxycarbonyl-7-methyl-3-oxo-8-(3-trifluoromethyl-phenyl)-5,8-dihydro-[1,2,4]triazolo[4,3-a]pyrimidin-2-yl]-acetyl}-methyl-amino)-ethyl]trimethyl-ammonium bromide]
